Earlier results on one compound are cited in patent US5981558A, “DC107 derivatives” (Kyowa Hakko Kogyo Co., Ltd., priority 1996, dated 1999).

SMILES strings stand for the structures.

One data set has as its system various bacteria. To be noted: Japanese Published Unexamined Patent Application No. 112988/89; cited from earlier work.
The next data set relates to tumor. As to conditions: Japanese Published Unexamined Patent Application No. 112988/89; cited from earlier work.

Regarding `CC1=CC(O)C(=O)C=CC=Cc2csc(n2)C(C)NC(=O)CC2(CC1)[S+]([O-])SC(=O)C2(C)O` (centres unmarked) [DC107], the antimicrobial activity entry in the data set with various bacteria is reported as “antimicrobial activity against various bacteria”. In addition, the antitumor activity entry in the data set on tumor is reported as “antitumor activity”.
